Assay results published in patent US4554100A, “Alkylamides of carboxyalkanoyl peptides and method for preparation thereof” (Spofa, Spojene podniky pro zdravotnickou vyrobu, priority 1981, dated 1985).
Where two headings read alike, the source gives them in different places. Starred links: 1 amine or outer side, 2 acyl side, 3 side chain; linkers in the order of their positions; H or OH if unused. Residues, ends and D or L forms follow the SMILES beside them. *: point of attachment. Glutaryl = O=C(CCCC(=O)[*:2])[*:1]; NHPhenethyl = c1ccc(CCN*)cc1; Suc = O=C(CCC(=O)[*:2])[*:1]; NHPr = CCCN*

Assays:
[1] = biological target: swine's pancreatic elastase (E3) (Sus scrofa, UniProt P00772); assay: Inhibition constants (Ki) with pancreatic elastase and chromogenic p-nitroanilide substrates; format: biochemical
Text: (§1) The earlier work also led to the surprising discovery that the carboxy group in the N-terminal part of the inhibitor as compared with the hydrophobic residue, such as an acetyl, substantially enhances inhibition capacity in the same manner as it enhances the constants of elastolytic hydrolysis of substrates of this type. It is further known that the properties of an elastolytic inhibitor are dependent upon the length of the peptide chain as well as at the substrate (eur. J. Biochem. 69, 1, 1976), higher inhibition capacity being present with a tripeptide than with a dipeptide. Experiments with vitro inhibition constants (Ki) for the alkylamides of 3-carboxypropionyl and 4-carboxybutyryl di and tripeptides were determined using pancreatic elastase and chromogenic substrates of p-nitroanilides of succinyl or glutaryl tetraalanines, the results of which are set forth in Table 1, below. Inhibition constant of the inhibitors described herein were also determined using human elastase, that is, human duodenal elastase after stimulation with cholecystokinine (E1) or lyophilized human pancreated fluid obtained by cannulation of the pancreatic duct outlet (E2), and they were then compared with swine's pancreatic elastase (E3), the results of which are set forth in Table 2, below.

[2] = biological target: lyophilized human pancreated fluid obtained by cannulation of the pancreatic duct outlet (E2); assay: Inhibition constants (Ki) with human pancreatic fluid elastase and chromogenic substrates; format: biochemical
Text: as §1

[3] = biological target: human duodenal elastase after stimulation with cholecystokinine (E1); assay: Inhibition constants (Ki) with human duodenal elastase and chromogenic substrates; format: biochemical
Text: as §1

[4] = Experimental pancreatitis in rats induced by sodium desoxycholate, serum amylase; format: in vivo; conditions: simultaneous application of 20 mg intraperitoneally
[5] = Table 1, pancreatic elastase, substrate Glt-(Ala)4-NAn, read-out: Ki, substrate Glt-(Ala)4-NAn
[6] = Table 1, pancreatic elastase, substrate Suc-(Ala)4-NAn, read-out: Ki, substrate Suc-(Ala)4-NAn
[7] = Table 2, substrate Glt-(Ala)4-NAn, read-out: Ki, Glt-(Ala)4-NAn, E2
[8] = Table 2, substrate Suc-(Ala)4-NAn, read-out: Ki, Suc-(Ala)4-NAn, E2
[9] = Table 2, substrate Glt-(Ala)4-NAn, read-out: Ki, Glt-(Ala)4-NAn, E1
[10] = Table 2, substrate Suc-(Ala)4-NAn, read-out: Ki, Suc-(Ala)4-NAn, E1

Chain of swine's pancreatic elastase (E3) (P00772 27-266): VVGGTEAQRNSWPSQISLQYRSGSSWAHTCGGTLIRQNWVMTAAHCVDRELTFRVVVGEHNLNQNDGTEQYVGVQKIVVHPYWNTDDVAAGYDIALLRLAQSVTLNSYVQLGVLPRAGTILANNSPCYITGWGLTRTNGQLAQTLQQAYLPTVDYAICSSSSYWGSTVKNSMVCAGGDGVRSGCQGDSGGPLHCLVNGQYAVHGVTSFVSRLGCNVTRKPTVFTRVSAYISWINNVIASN

CC(C)CNC(=O)[C@H](C)NC(=O)[C@H](C)NC(=O)[C@H](C)NC(=O)CCC(=O)O [Suc--(Ala)3 --NH--iBu, 3-Carboxypropionylalanyl-alanyl Alanine Isobutylamide]
Ki [1, 5]: 1470 µM
Ki [1, 6]: 816 µM

CCNC(=O)[C@H](C)NC(=O)[C@H](C)NC(=O)[C@H](C)NC(=O)CCCC(=O)O [Glt--(Ala)3 --NH--Et, 4-Carboxybutyrylalanyl-alanyl Alanine Ethylamide]
Ki [2, 7]: 19 µM
Ki [2, 8]: 7.4 µM
Ki [3, 9]: 19 µM
Ki [3, 10]: 15 µM
level of serum amylase [4]: lower level of serum amylase
Ki [1, 5]: 8.4 µM
Ki [1, 6]: 8.8 µM

CC(C)CNC(=O)[C@@H]1CCCN1C(=O)[C@H](C)NC(=O)CCC(=O)O [Suc--Ala--Pro--NH--iBu]
Ki [1, 5]: 5750 µM
Ki [1, 6]: 2040 µM

C[C@H](NC(=O)CCC(=O)O)C(=O)N[C@@H](C)C(=O)NCCc1ccccc1 [Suc--(Ala)2 --NH--EtPh, 3-Carboxypropionylalanyl Alanine Phenylethylamide] (Suc-Ala-Ala-NHPhenethyl)
Ki [1, 5]: 666 µM
Ki [1, 6]: 1460 µM

CC(C)CNC(=O)[C@H](C)NC(=O)[C@H](C)NC(=O)[C@H](C)NC(=O)CCCC(=O)O [Glt--(Ala)3 --NH--iBu, 4-Carboxybutyrylalanyl-alanyl Alanine Isobutylamide]
Ki [1, 5]: 794 µM
Ki [1, 6]: 668 µM

CCNC(=O)[C@@H]1CCCN1C(=O)[C@H](C)NC(=O)[C@H](C)NC(=O)CCC(=O)O [Suc--Ala--Ala--Pro--NH--Et, 3-Carboxypropionylalanyl-alanyl Proline Ethylamide] (Suc-Ala-Ala-Pro-NHEt)
Ki [2, 7]: 17 µM
Ki [2, 8]: 23 µM
Ki [3, 9]: 19 µM
Ki [3, 10]: 14 µM
Ki [1, 5]: 4.7 µM
Ki [1, 6]: 2.5 µM

CCNC(=O)[C@H](C)NC(=O)[C@H](C)NC(=O)CCCC(=O)O [Glt--(Ala)2 --NH--Et] (Glutaryl-Ala-Ala-NHEt)
Ki [1, 5]: 109 µM
Ki [1, 6]: 68.1 µM

CCNC(=O)[C@H](C)NC(=O)[C@H](C)NC(=O)CCC(=O)O [Suc--(ala)2 --NH--Et] (Suc-Ala-Ala-NHEt)
Ki [1, 5]: 166 µM
Ki [1, 6]: 95.2 µM

CCCNC(=O)[C@H](C)NC(=O)[C@H](C)NC(=O)[C@H](C)NC(=O)CCCC(=O)O [Glt--(Ala)3 --NH--Pr, 4-Carboxybutyrylalanyl-alanyl Alanine Propylamide]
Ki [2, 7]: 4.5 µM
Ki [2, 8]: 3.8 µM
Ki [3, 9]: 7.2 µM
Ki [3, 10]: 11 µM
Ki [1, 5]: 2.5 µM
Ki [1, 6]: 2.5 µM

CCNC(=O)[C@H](C)NC(=O)[C@H](C)NC(=O)[C@H](C)NC(=O)C=CC(=O)O [Mal--(Ala)3 --NH--Et, 3-Carboxyacryolylalanyl-alanyl Alanine Ethylamide]
Ki [2, 7]: 117 µM
Ki [2, 8]: 69 µM
Ki [3, 9]: 73 µM
Ki [3, 10]: 87 µM
Ki [1, 5]: 30 µM
Ki [1, 6]: 35 µM
Ki ([1]; Table 2, swine's pancreatic elastase (E3), substrate Glt-(Ala)4-NAn, read-out: Ki, Glt-(Ala)4-NAn, E3): 30 µM

CCCNC(=O)[C@H](C)NC(=O)[C@H](C)NC(=O)[C@H](C)NC(=O)CCC(=O)O [Suc--(Ala)3 --NH--Pr, 3-Carboxypropionylalanyl-alanyl Alanine Propylamide]
Ki [2, 7]: 14 µM
Ki [2, 8]: 13 µM
Ki [3, 9]: 21 µM
Ki [3, 10]: 12 µM
Ki [1, 5]: 4.5 µM
Ki [1, 6]: 6.8 µM

CNC(=O)[C@H](C)NC(=O)[C@H](C)NC(=O)[C@H](C)NC(=O)CCC(=O)O [Suc--(Ala)3 --NH--Me]
Ki [1, 5]: 680 µM
Ki [1, 6]: 510 µM

CCNC(=O)[C@@H]1CCCN1C(=O)[C@H](C)NC(=O)[C@H](C)NC(=O)CCCC(=O)O [Glt--Ala--Ala--Pro--NH--Et, 4-Carboxybutyrylalanyl-alanyl Proline Ethylamide] (Glutaryl-Ala-Ala-Pro-NHEt)
Ki [2, 7]: 13.8 µM
Ki [2, 8]: 2.9 µM
Ki [3, 9]: 12 µM
Ki [3, 10]: 10 µM
level of serum amylase [4]: lower level of serum amylase
Ki [1, 5]: 2.7 µM
Ki [1, 6]: 1.6 µM

CCNC(=O)[C@H](C)NC(=O)[C@H](C)NC(=O)[C@H](C)NC(C)=O [Ac--(Ala)3 --NH--Et, reference compound]
Ki [2, 7]: 117 µM
Ki [2, 8]: 69 µM
Ki [3, 9]: 123 µM
Ki [3, 10]: 238 µM
Ki [1, 5]: 46 µM
Ki [1, 6]: 28 µM

CCNC(=O)[C@H](C)NC(=O)[C@H](C)NC(=O)[C@H](C)NC(=O)CCC(=O)O [Suc--(Ala)3 --NH--Et, 3-Carboxypropionylalanyl-alanyl Alanine Ethylamide]
Ki [2, 7]: 47 µM
Ki [2, 8]: 29 µM
Ki [3, 9]: 89 µM
Ki [3, 10]: 76 µM
Ki [1, 5]: 29 µM
Ki [1, 6]: 20 µM
Ki ([1]; Table 2, swine's pancreatic elastase (E3), substrate Suc-(Ala)4-NAn, read-out: Ki, Suc-(Ala)4-NAn, E3): 20 µM

CCNC(=O)[C@@H]1CCCN1C(=O)[C@H](C)NC(=O)CCC(=O)O [Suc--Ala--Pro--NH--Et, 3-Carboxypropionylalanyl Proline Ethylamide] (Suc-Ala-Pro-NHEt)
Ki [1, 5]: 80 µM
Ki [1, 6]: 111 µM

CCCNC(=O)[C@@H]1CCCN1C(=O)[C@H](C)NC(=O)[C@H](C)NC(=O)CCCC(=O)O [Glt-Ala-Ala-Pro-Nh-Pr, 4-Carboxybutyrylalanyl-alanyl Proline Propylamide] (Glutaryl-Ala-Ala-Pro-NHPr)
level of serum amylase [4]: lower level of serum amylase

CNC(=O)[C@H](C)NC(=O)[C@H](C)NC(=O)[C@H](C)NC(=O)CCCC(=O)O [Glt--(Ala)3 --NH--Me]
Ki [1, 5]: 320 µM
Ki [1, 6]: 280 µM
